Assay results published in paper PMC8412337, “Alpha-single chains of collagen type VI inhibit the fibrogenic effects of triple helical collagen VI in hepatic stellate cells” (PLoS ONE, 2021).

Experiments:
[1] = test system: Bax and Bcl-2 in activated HSCs; assay: Western-blot analysis of Bax and Bcl-2; format: cell-based, rat; conditions: densitometry, three independent experiments
Protocol: Dislodged cells were centrifuged at 800 x g/10 min and lysed with 100 μl lysis buffer. The protein concentration was determined using NanoOrange® Protein Quantitation Kit (Life Technologies) according to the manufacturer’s instructions. Briefly, protein solutions were mixed with the diluted NanoOrange reagent in 1.5 ml polypropylene tubes and heated at 95°C for 10 min in a thermomixer (Peqlab, Erlangen, Germany). Tubes were centrifuged and 200 μl of each sample were transferred to a black 96 well flat-bottom plate (Greiner BioOne, Frickenhausen, Germany). The emitted fluorescence was assessed at 570 nm in a SpectraMax Gemini EM (Molecular Devices, Biberach an der Riß, Germany). Protein concentrations were calculated from a bovine serum albumin standard curve. Equivalent amounts (10–50 μg) of protein were used in […]. Sample buffer (1:1) was added and the aliquots (20 μl final volume) were boiled for 5 min and subjected to 12% SDS-PAGE. After blocking for 1 h at room temperature in 10 mmol Tris-HCl, pH 7.5, 100 mmol NaCl, containing 0.1% Tween 20 and 3% bovine serum albumine (BSA), nitrocellulose-membranes were incubated either with polyclonal rabbit anti-rat antibodies to Bax (1:1000, sc-493), Bcl-2 (1:1000, sc783, both Santa Cruz, Santa Cruz, USA), α-actin (1:4000, A2547, Sigma) or β-actin (1:10,000, A5441, Sigma). Membranes were then washed in 10 mmol Tris-HCl, 100 mmol NaCl, 0.1% Tween 20, pH 7.5, and incubated with anti-rabbit IgG coupled to peroxidase (1:1000, A4416, Sigma) for 1 h at room temperature or directly developed (RC20H). Bands were detected with the ECL chemiluminescence reagent (Amersham-Pharmacia, Freiburg, Germany). After stripping in 0.1 M glycin-HCl, pH 2, for 20 min at room temperature, membranes were reprobed with appropriate primary and secondary antibodies. Band intensities were analyzed by densitometry and normalized to β-actin.

primary rat HSCs [2] = assay: Spreading and survival after serum withdrawal, phase contrast microscopy; format: cell-based; conditions: within 24 h; medium lacking FBS; 30 μg/ml collagen; three independent experiments
Protocol: Activated HSC (third passage) were serum starved for 24 h in standard medium without FBS (starving medium), followed by dissociation with 500 μl 0.05% trypsin-EDTA (Biochrom, Berlin, Germany) and neutralization with 30 ml starving medium containing 1 g/l soybean trypsin inhibitor and 1 g/l ovalbumin. Alternatively, cells were scraped carefully with a cell-scraper (Costar, Cambridge, MA, USA) to exclude any potential effect of trypsin. […] For quantification of spreading, cells that had attached were counted 12 hours after plating and spreading efficiency was determined as percentage of plated cells in each group. De-novo DNA synthesis and apoptosis were assessed by morphological criteria, Cell death detection ELISA and FACS analysis as described below. […] After blocking the cells 1h with DMEM+1% FBS, the cells were incubated with primary antibodies against a-actin (Sigma-Aldrich, Taufkirchen, Germany, #A2547; dilution 1:200) and GFAP (Sigma-Aldrich, #G9269; dilution 1:20) followed by a washing step with PBS and the incubation with fluorescence-labeled secondary antibodies (Alexa Fluor 546 & Alexa Fluor 488, Molecular Probes, Eugene, USA, #A11030 & #A11034; dilution 1:100). […]

primary rat HSCs [3] = assay: [3H]-thymidine incorporation, de-novo DNA synthesis; format: cell-based; conditions: primary rHSCs
CFSC (rat HSC cell line) = assay: as above; format: cell-based; set-up: proliferative effect of reconstituted CVI after denaturation and refolding: dose or concentration left out as unconfirmed
Protocol: Immediately before use, guanidine hydrochloride (6 mol/l) was cleared over night by activated charcoal (Merck, Darmstadt, Germany) and adjusted to pH 8.0 by adding 50 mmol/l tris(hydroxymethyl)aminomethane (Tris). Freeze dried CVI (10 mg/ml) was mixed with 1 ml Tris-buffered guanidine-hydrochloride, incubated at room temperature for 1 h with frequent thorough vortex followed by 1 h at 37°C. The buffer from the clear supernatant after centrifugation (10.000 x g, 10 min, 4°C) was replaced for 150 mmol/l HAc by gelfiltration (Sephadex-G25; GE Healthcare, Munich, Germany). This procedure regains the biological activity of CVI on CFSC (S1 Fig).
5x10^3CFSC in 100 μl 10% FBS were seeded into a 96-well flat-bottom tissue culture plate (Nunc, Roskilde, Denmark). After 24 hours, medium was completely removed, and cells were rinsed with 200 μl phosphate-buffered saline and 100 μl standard medium containing only 0.25% FBS were added. Cells were cultured for additional 24 h prior to treatment. Synchronized microcultures in 96-well plates were treated for 2 hours in reduction medium. […] [^3H]-thymidine incorporation was measured as described before. […] After neutralization with 800 mmol/l HCl, lysates were collected to a glassfibre mat and the de-novo DNA synthesis was assessed by liquid scintillation (LKB Wallac, Bromma, Sweden) and the radioactive decay was counted (for) a minute (cpm).

Substance: CVI: Human collagen VI isolated from placentas by pepsin digestion; triple helical, soluble
- Bax to Bcl-2 ratio ([1]; 24 hours culture after serum starvation): 1.0
- Bax protein level, fold lower compared to the medium or CI group ([1]; 24 hours, p<0.05): 6-7 fold
- suppression of growth factor withdrawal-induced apoptosis (attachment, cell shrinkage) (primary rat HSCs [2]): potently suppressed
- de-novo DNA synthesis ([3H]-thymidine incorporation) (primary rat HSCs [3]; CVI at 10 μg/ml, within 24 hours, three independent experiments): stimulated a robust de-novo DNA synthesis
- de-novo DNA synthesis ([3H]-thymidine incorporation) at increasing concentration (primary rat HSCs [3]; CVI from 10 μg/ml up to 100 μg/ml, concentration dependent): equaling the effects of 10% FBS
- de-novo DNA synthesis ([3H]-thymidine incorporation) (CFSC (rat HSC cell line); 24 h, n = three independent experiments): induced a comparable increase in de-novo DNA synthesis
- proliferative effect of reconstituted CVI after denaturation and refolding (CFSC (rat HSC cell line); three independent experiments (S1 Fig)): regains its biological activity
